Test results published in PubChem BioAssay (NCI).
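Method: 48-hour compound exposure of cells in 96-well plates, five concentrations, linear interpolation of endpoints. GI50 = concentration required for 50% inhibition of growth. TGI: concentration producing complete growth inhibition.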

Columns and labels:
Assay in all cases: NCI-60 cell line screen, 48 h
HT29 colon = test system: HT29 colon
MALME-3M melanoma = test system: MALME-3M melanoma
MDA-MB-435 = test system: MDA-MB-435
MOLT-4 leukemia = test system: MOLT-4 leukemia
RPMI-8226 leukemia = test system: RPMI-8226 leukemia
SF-268 CNS = test system: SF-268 CNS
SR leukemia = test system: SR leukemia
TK-10 renal = test system: TK-10 renal
U251 CNS = test system: U251 CNS
UACC-257 melanoma = test system: UACC-257 melanoma

COc1cc2c(cc1OC)C(Cl)C(c1ccc(F)cc1)=C2Cl (stereo not given)
TGI (HT29 colon): 32.5 µM | TGI (MALME-3M melanoma): 28.7 µM | TGI (MDA-MB-435): 23.6 µM | TGI (MOLT-4 leukemia): 13.1 µM | TGI (RPMI-8226 leukemia): 39.2 µM | TGI (SF-268 CNS): 39.5 µM | TGI (SR leukemia): 14.3 µM | TGI (TK-10 renal): 28.5 µM | TGI (U251 CNS): 26.6 µM | TGI (UACC-257 melanoma): 28.8 µM

COc1cc2c(cc1OC)-c1cc(OC)c(OC)cc1C(CN(C)C)C2 (stereo not given)
GI50 (HT29 colon): > 10 µM | TGI (HT29 colon): > 10 µM | GI50 (MALME-3M melanoma): > 10 µM | TGI (MALME-3M melanoma): > 10 µM | GI50 (MDA-MB-435): > 10 µM | TGI (MDA-MB-435): > 10 µM | GI50 (MOLT-4 leukemia): > 10 µM | TGI (MOLT-4 leukemia): > 10 µM | GI50 (RPMI-8226 leukemia): > 10 µM | TGI (RPMI-8226 leukemia): > 10 µM | GI50 (SF-268 CNS): > 10 µM | TGI (SF-268 CNS): > 10 µM | GI50 (SR leukemia): > 10 µM | TGI (SR leukemia): > 10 µM | GI50 (TK-10 renal): > 10 µM | TGI (TK-10 renal): > 10 µM | GI50 (U251 CNS): > 10 µM | TGI (U251 CNS): > 10 µM | GI50 (UACC-257 melanoma): > 10 µM | TGI (UACC-257 melanoma): > 10 µM

NC(=S)N/N=C\c1nccc2c(C(F)(F)F)cccc12
GI50 (HT29 colon): 0.524 µM | TGI (HT29 colon): 16.5 µM | GI50 (MALME-3M melanoma): 0.435 µM | TGI (MALME-3M melanoma): > 34.5 µM | GI50 (MDA-MB-435): 0.481 µM | TGI (MDA-MB-435): 31.5 µM | GI50 (MOLT-4 leukemia): 0.355 µM | TGI (MOLT-4 leukemia): 15.6 µM | GI50 (RPMI-8226 leukemia): 0.376 µM | TGI (RPMI-8226 leukemia): 14.9 µM | GI50 (SF-268 CNS): 0.27 µM | TGI (SF-268 CNS): 21.6 µM | GI50 (SR leukemia): 0.0997 µM | TGI (SR leukemia): > 37 µM | GI50 (TK-10 renal): 0.516 µM | TGI (TK-10 renal): 32.1 µM | GI50 (U251 CNS): 0.224 µM | TGI (U251 CNS): 8.4 µM | GI50 (UACC-257 melanoma): 0.29 µM | TGI (UACC-257 melanoma): 0.94 µM

CC(=C(c1ccc(OCCN2CCCCC2)cc1)c1ccc(OCCN2CCCCC2)cc1)c1ccc(Cl)cc1
GI50 (HT29 colon): 0.35 µM | TGI (HT29 colon): 0.779 µM | GI50 (MALME-3M melanoma): 0.419 µM | TGI (MALME-3M melanoma): 0.798 µM | GI50 (MDA-MB-435): 0.416 µM | TGI (MDA-MB-435): 0.777 µM | GI50 (MOLT-4 leukemia): 0.449 µM | TGI (MOLT-4 leukemia): 0.982 µM | GI50 (RPMI-8226 leukemia): 0.53 µM | TGI (RPMI-8226 leukemia): 1.19 µM | GI50 (SF-268 CNS): 0.436 µM | TGI (SF-268 CNS): 0.873 µM | GI50 (SR leukemia): 0.195 µM | TGI (SR leukemia): 0.707 µM | GI50 (TK-10 renal): 0.384 µM | TGI (TK-10 renal): 0.755 µM | GI50 (U251 CNS): 0.387 µM | TGI (U251 CNS): 0.747 µM | GI50 (UACC-257 melanoma): 0.454 µM | TGI (UACC-257 melanoma): 0.884 µM

O=C1c2ccccc2C(=O)c2c(/C=C\N3CCCCC3)ccnc21
TGI (HT29 colon): 15.1 µM | TGI (MALME-3M melanoma): 1.67 µM | TGI (MDA-MB-435): 0.289 µM | TGI (MOLT-4 leukemia): 41.1 µM | TGI (RPMI-8226 leukemia): 52.6 µM | TGI (SF-268 CNS): 39.9 µM | TGI (SR leukemia): 35.9 µM | TGI (TK-10 renal): 34.4 µM | TGI (U251 CNS): 14.5 µM | TGI (UACC-257 melanoma): 3.22 µM

COc1ccc(CN2C(=O)C(Cl)=C(Nc3cccc(C(F)(F)F)c3)C2=O)cc1
GI50 (HT29 colon): 4.55 µM | TGI (HT29 colon): 19.7 µM | GI50 (MALME-3M melanoma): 2.99 µM | TGI (MALME-3M melanoma): 22.7 µM | GI50 (MDA-MB-435): 2.77 µM | TGI (MDA-MB-435): 9.12 µM | GI50 (MOLT-4 leukemia): 2.39 µM | TGI (MOLT-4 leukemia): 9.29 µM | GI50 (RPMI-8226 leukemia): 2.38 µM | TGI (RPMI-8226 leukemia): 23.2 µM | GI50 (SF-268 CNS): 3.67 µM | TGI (SF-268 CNS): 16.6 µM | GI50 (SR leukemia): 2.77 µM | TGI (SR leukemia): 8.88 µM | GI50 (TK-10 renal): 16.8 µM | TGI (TK-10 renal): 46.3 µM | GI50 (U251 CNS): 2.75 µM | TGI (U251 CNS): 17 µM | GI50 (UACC-257 melanoma): 11.1 µM | TGI (UACC-257 melanoma): 27.6 µM
